The results in this text go back to ChEMBL document CHEMBL4411294, “Synthesis and biological evaluation of cyanoaziridine phosphine oxides and phosphonates with antiproliferative activity” (Eur J Med Chem, 2019).

The term IC50 denotes the concentration at which inhibition is half-maximal.

Assay [1] deals with MRC5. The experiment in a line: Cytotoxicity against human MRC5 cells assessed as reduction in cell viability after 48 hrs by CCK8 assay. Particulars: MRC5, 48 h. The assay is classed as cell-based. Background: Formazan colour is commonly taken as a measure of viable cells.
The subject of assay [2] is A549. The experiment in a line: Cytotoxicity against human A549 cells assessed as reduction in cell viability after 48 hrs by CCK8 assay. Format: functional, cell-based. The settings on record: A549, 48 h.
In assay [3] the test system is HEK293. The experiment in a line: Cytotoxicity against human HEK293 cells assessed as reduction in cell viability after 48 hrs by CCK8 assay. The assay is classed as cell-based. The settings on record: HEK293, 48 h.

Consider `C[C@@]1(C#N)N[C@H]1P(=O)(c1ccccc1)c1ccccc1` (relative stereo), for which the figures for the half-inhibitory concentration (IC50) in assay [1], in assay [2] and in assay [3] were above 50 µM, 2 µM and above 50 µM, respectively.

As to `CC[C@]1(C#N)[C@H](P(=O)(c2ccccc2)c2ccccc2)N1S(=O)(=O)c1ccc(C)cc1` (relative stereo), the IC50 is above 50 µM in assay [1], 2.3 µM in assay [2] and 43.2 µM in assay [3].

As for `Cc1ccc(S(=O)(=O)N2[C@@H](P(=O)(OC(C)C)OC(C)C)[C@]2(C)C#N)cc1` (relative stereo), the IC50 in assay [1] was above 50 µM; in assay [2], 3.4 µM; in assay [3] it was above 50 µM.

In the case of `CC[C@@]1(C#N)N[C@H]1P(=O)(c1ccccc1)c1ccccc1` (relative stereo), the IC50 in assay [1] is above 50 µM; in assay [2] it was 3.3 µM; in assay [3], above 50 µM.

Turning to `C[C@@]1(C#N)N[C@H]1P(=O)(O)O` (relative stereo), the figures for the IC50 in assay [1], in assay [2] and in assay [3] were above 50 µM, 8.5 µM and above 50 µM, respectively.

Regarding `CCOP(=O)(OCC)[C@@H]1N(S(=O)(=O)c2ccc(C)cc2)[C@]1(C#N)CC` (relative stereo), the IC50 in assay [1] is above 50 µM; in assay [2] it was 4.9 µM; in assay [3], above 50 µM.

In the case of `CCOP(=O)(OCC)[C@@H]1N(S(=O)(=O)c2ccc(C)cc2)[C@@]1(C)C#N` (relative stereo), the IC50 in assay [1] and in assay [3] was above 50 µM each time.

Consider `C[C@]1(C#N)[C@H](P(=O)(c2ccccc2)c2ccccc2)N1C(=O)OCc1ccccc1` (relative stereo), for which the IC50 in assay [1] was above 50 µM; in assay [2] it was 8.1 µM; in assay [3], 30.1 µM.

In the case of `Cc1ccc(S(=O)(=O)N2[C@@H](P(=O)(c3ccccc3)c3ccccc3)[C@]2(C)C#N)cc1` (relative stereo), the IC50 in assay [1] is above 50 µM; in assay [2], 3.1 µM; in assay [3], above 50 µM.

`COc1cccc2c1C(=O)c1c(O)c3c(c(O)c1C2=O)C[C@@](O)(C(=O)CO)C[C@@H]3O[C@H]1C[C@H](N)[C@H](O)[C@H](C)O1` [DOXORUBICIN]: the half-maximal inhibitory concentration (IC50) in assay [1] was above 50 µM.
